Experimental data from ChEMBL document CHEMBL2073834, “Transport of temocaprilat into rat hepatocytes: role of organic anion transporting polypeptide” (J Pharmacol Exp Ther, 1998).

How the values were obtained:
Format in all cases: functional, cell-based
[1] = target: T1, Solute carrier organic anion transporter family member 1A1 (Rattus norvegicus, UniProt P46720); experiment: TP_TRANSPORTER: inhibition of Temocaprilat uptake (Temocaprilat: 0.1 uM, DBSB: 100 uM) in Oatp1-expressing COS-7 cells; conditions: monkey, cos-7, 100 µM
T1 sequence (P46720 whole entry): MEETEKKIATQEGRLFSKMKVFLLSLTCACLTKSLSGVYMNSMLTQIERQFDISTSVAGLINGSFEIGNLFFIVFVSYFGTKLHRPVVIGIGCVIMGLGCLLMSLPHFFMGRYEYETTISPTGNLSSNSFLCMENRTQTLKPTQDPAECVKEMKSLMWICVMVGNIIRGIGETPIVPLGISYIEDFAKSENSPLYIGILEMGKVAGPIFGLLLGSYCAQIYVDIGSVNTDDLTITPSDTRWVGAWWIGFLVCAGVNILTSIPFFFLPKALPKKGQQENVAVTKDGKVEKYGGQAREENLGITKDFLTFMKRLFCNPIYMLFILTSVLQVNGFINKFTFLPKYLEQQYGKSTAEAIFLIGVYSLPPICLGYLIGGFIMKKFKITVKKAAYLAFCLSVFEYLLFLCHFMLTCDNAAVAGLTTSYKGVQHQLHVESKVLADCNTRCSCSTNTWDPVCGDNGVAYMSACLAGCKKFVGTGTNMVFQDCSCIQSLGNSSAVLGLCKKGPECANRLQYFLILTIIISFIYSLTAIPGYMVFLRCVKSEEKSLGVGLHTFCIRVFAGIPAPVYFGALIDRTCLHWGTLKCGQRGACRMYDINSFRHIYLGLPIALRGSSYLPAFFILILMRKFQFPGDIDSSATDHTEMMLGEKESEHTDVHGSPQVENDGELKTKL

[2] = target: T1, Solute carrier organic anion transporter family member 1A1; experiment: TP_TRANSPORTER: inhibition of Temocaprilat uptake (Temocaprilat: 0.1 uM, E217betaG: 10 uM) in Oatp1-expressing COS-7 cells; conditions: monkey, cos-7, 10 µM
[3] = substrate: O=C(O)CN1C[C@@H](c2cccs2)SC[C@H](N[C@@H](CCc2ccccc2)C(=O)O)C1=O; experiment: (§1) TP_TRANSPORTER: uptake in Oatp1-expressing COS-7 cells
[4] = substrate: C[C@]12CC[C@@H]3c4ccc(O)cc4CC[C@H]3[C@@H]1CC[C@@H]2O[C@@H]1O[C@H](C(=O)O)[C@@H](O)[C@H](O)[C@H]1O; experiment: as §1

`O=C1OC(c2ccc(OS(=O)(=O)O)cc2)(c2ccc(OS(=O)(=O)O)cc2)c2c(Br)ccc(Br)c21` [DIBROMOSULFOPHTHALEIN] was tested, and the Activity [1] was “inhibitor [(at a rough estimate) 5 % of control]”.

In the case of `C[C@]12CC[C@@H]3c4ccc(O)cc4CC[C@H]3[C@@H]1CC[C@@H]2O[C@@H]1O[C@H](C(=O)O)[C@@H](O)[C@H](O)[C@H]1O` [ESTRADIOL 17B GLUCURONIDE], the Activity [2] is reported as “inhibitor [(at a rough estimate) 55 % of control]”.

B1: Solute carrier organic anion transporter family member 1A1 (Rattus norvegicus) (protein)
chain: T1 sequence (P46720 whole entry)
With B1 the Km [3] was 46.7 µM and the Km [4] was 11 µM.
